Test results as given in the NIST ThermoML archive (doi:10.1016/j.fluid.2017.06.022).

Test: xn = mol fraction of the nth substance listed
Conditions: Liquid, Bellows volumetry

C=CC [propene] + Cc1ccccc1
Conditions	mass density [kg/m3]
422.8 K, 6300 kPa, x1 = 0.7612	383
422.8 K, 6800 kPa, x1 = 0.7612	392.4
422.8 K, 7500 kPa, x1 = 0.7612	405.5
422.8 K, 8900 kPa, x1 = 0.7612	424.5
422.8 K, 10600 kPa, x1 = 0.7612	441.8
422.8 K, 15400 kPa, x1 = 0.7612	476.7
422.8 K, 17400 kPa, x1 = 0.7612	484.1
422.8 K, 24400 kPa, x1 = 0.7612	508.8
422.8 K, 31000 kPa, x1 = 0.7612	527.4
422.8 K, 37800 kPa, x1 = 0.7612	543.1
422.8 K, 44900 kPa, x1 = 0.7612	556.7
422.8 K, 51600 kPa, x1 = 0.7612	566.8
422.8 K, 58200 kPa, x1 = 0.7612	576.2
422.8 K, 63200 kPa, x1 = 0.7612	583.4
422.8 K, 67200 kPa, x1 = 0.7612	588.5
424 K, 4500 kPa, x1 = 0.53	514
424 K, 4800 kPa, x1 = 0.53	516.1
424 K, 5300 kPa, x1 = 0.53	519
424 K, 5900 kPa, x1 = 0.53	522.7
424 K, 7100 kPa, x1 = 0.53	529
424 K, 8700 kPa, x1 = 0.53	535.9
424 K, 10400 kPa, x1 = 0.53	543
424 K, 17000 kPa, x1 = 0.53	563.7
424 K, 24000 kPa, x1 = 0.53	581.4
424 K, 30500 kPa, x1 = 0.53	594.5
425.2 K, 1300 kPa, x1 = 0.1159	668.8
425.2 K, 1600 kPa, x1 = 0.1159	669.7
425.2 K, 2200 kPa, x1 = 0.1159	671
425.2 K, 3200 kPa, x1 = 0.1159	673.2
425.2 K, 5400 kPa, x1 = 0.1159	678.2
425.2 K, 7000 kPa, x1 = 0.1159	681.3
425.2 K, 10300 kPa, x1 = 0.1159	688.2
425.2 K, 17100 kPa, x1 = 0.1159	700.5
425.2 K, 24000 kPa, x1 = 0.1159	712.3
425.2 K, 30700 kPa, x1 = 0.1159	721.9
425.2 K, 37600 kPa, x1 = 0.1159	730.7
425.2 K, 44700 kPa, x1 = 0.1159	738.6
425.2 K, 51400 kPa, x1 = 0.1159	745.7
425.2 K, 58400 kPa, x1 = 0.1159	752.3
425.2 K, 63100 kPa, x1 = 0.1159	756.7
425.2 K, 67000 kPa, x1 = 0.1159	760.1
474.3 K, 2200 kPa, x1 = 0.1159	604.5
474.3 K, 2900 kPa, x1 = 0.1159	607.4
474.3 K, 3700 kPa, x1 = 0.1159	610.3
474.3 K, 5300 kPa, x1 = 0.1159	616.2
474.3 K, 7200 kPa, x1 = 0.1159	622.2
474.3 K, 10500 kPa, x1 = 0.1159	632.3
474.3 K, 13900 kPa, x1 = 0.1159	641.4
474.3 K, 17400 kPa, x1 = 0.1159	650.5
474.3 K, 20400 kPa, x1 = 0.1159	657.2
474.3 K, 23700 kPa, x1 = 0.1159	664.4
474.3 K, 31100 kPa, x1 = 0.1159	678.2
474.3 K, 37400 kPa, x1 = 0.1159	688.7
474.3 K, 38000 kPa, x1 = 0.1159	689.6
474.3 K, 44800 kPa, x1 = 0.1159	700.1
474.3 K, 51300 kPa, x1 = 0.1159	708.8
474.4 K, 6700 kPa, x1 = 0.53	412.3
474.4 K, 7200 kPa, x1 = 0.53	423.9
474.4 K, 8100 kPa, x1 = 0.53	437.9
474.4 K, 9200 kPa, x1 = 0.53	450.2
474.4 K, 10700 kPa, x1 = 0.53	464.3
474.4 K, 13800 kPa, x1 = 0.53	487.2
474.4 K, 18000 kPa, x1 = 0.53	509
474.4 K, 23800 kPa, x1 = 0.53	531.7
474.4 K, 31300 kPa, x1 = 0.53	551.8
474.4 K, 37900 kPa, x1 = 0.53	566.1
474.4 K, 44400 kPa, x1 = 0.53	579
474.4 K, 51500 kPa, x1 = 0.53	591.3
474.4 K, 58400 kPa, x1 = 0.53	602.1
474.4 K, 63100 kPa, x1 = 0.53	608.9
474.4 K, 67200 kPa, x1 = 0.53	614.2
474.8 K, 7900 kPa, x1 = 0.7612	213.2
474.8 K, 8500 kPa, x1 = 0.7612	232.7
474.8 K, 9100 kPa, x1 = 0.7612	257.3
474.8 K, 9800 kPa, x1 = 0.7612	279.8
474.8 K, 10600 kPa, x1 = 0.7612	304.4
474.8 K, 11700 kPa, x1 = 0.7612	333.8
474.8 K, 12100 kPa, x1 = 0.7612	337.7
474.8 K, 14600 kPa, x1 = 0.7612	374.6
474.8 K, 17400 kPa, x1 = 0.7612	402.7
474.8 K, 24200 kPa, x1 = 0.7612	442.3
474.8 K, 31800 kPa, x1 = 0.7612	475
474.8 K, 37900 kPa, x1 = 0.7612	493.8
474.8 K, 44600 kPa, x1 = 0.7612	511.3
474.8 K, 51500 kPa, x1 = 0.7612	527.1
474.8 K, 58300 kPa, x1 = 0.7612	540
474.8 K, 63100 kPa, x1 = 0.7612	547.8
474.8 K, 67300 kPa, x1 = 0.7612	553.9
505.4 K, 7200 kPa, x1 = 0.53	291.1
505.4 K, 7700 kPa, x1 = 0.53	316.5
505.4 K, 8000 kPa, x1 = 0.53	328
505.4 K, 8700 kPa, x1 = 0.53	355.4
505.4 K, 9500 kPa, x1 = 0.53	376.8
505.4 K, 10600 kPa, x1 = 0.53	396.8
505.4 K, 13800 kPa, x1 = 0.53	435.7
505.4 K, 17400 kPa, x1 = 0.53	462.3
505.4 K, 24200 kPa, x1 = 0.53	495.4
505.4 K, 31500 kPa, x1 = 0.53	523.8
505.4 K, 37900 kPa, x1 = 0.53	540.2
505.4 K, 44600 kPa, x1 = 0.53	554.8
505.4 K, 51400 kPa, x1 = 0.53	568
505.4 K, 58400 kPa, x1 = 0.53	579.6
505.4 K, 62900 kPa, x1 = 0.53	587.4
505.4 K, 66800 kPa, x1 = 0.53	592.6
554.4 K, 4700 kPa, x1 = 0.1159	442.2
554.4 K, 5300 kPa, x1 = 0.1159	460
554.4 K, 6000 kPa, x1 = 0.1159	475.7
554.4 K, 6600 kPa, x1 = 0.1159	486
554.4 K, 7200 kPa, x1 = 0.1159	493.7
554.4 K, 9400 kPa, x1 = 0.1159	515.7
554.4 K, 10800 kPa, x1 = 0.1159	526.4
554.4 K, 17800 kPa, x1 = 0.1159	567.8
554.4 K, 24100 kPa, x1 = 0.1159	591.2
554.4 K, 30900 kPa, x1 = 0.1159	610.7
554.4 K, 37900 kPa, x1 = 0.1159	626.5
554.4 K, 44500 kPa, x1 = 0.1159	640.2
554.4 K, 51800 kPa, x1 = 0.1159	653
554.4 K, 58200 kPa, x1 = 0.1159	663.6
554.4 K, 63300 kPa, x1 = 0.1159	671.5
554.4 K, 67100 kPa, x1 = 0.1159	676.8
